Data published in paper PMC12130737, “Taurine Alleviates Pancreatic β‐Cell Senescence by Inhibition of p53 Pathway” (Journal of Diabetes, 2025).
Residue numbers refer to the chain shown, from its start.

What was measured:
CDKN2AIP [1] = molecular target: T1, CDKN2AIP (Mus musculus, UniProt Q8BI72); assay: DARTS (proteinase K protection, immunoblot); type: biochemical; details: MIN6 cell lysate, taurine 0-200 uM, pH 7.5, 1 h on ice
T1 construct: endogenous protein in MIN6 cell lysate
T1 sequence (Q8BI72 2-563): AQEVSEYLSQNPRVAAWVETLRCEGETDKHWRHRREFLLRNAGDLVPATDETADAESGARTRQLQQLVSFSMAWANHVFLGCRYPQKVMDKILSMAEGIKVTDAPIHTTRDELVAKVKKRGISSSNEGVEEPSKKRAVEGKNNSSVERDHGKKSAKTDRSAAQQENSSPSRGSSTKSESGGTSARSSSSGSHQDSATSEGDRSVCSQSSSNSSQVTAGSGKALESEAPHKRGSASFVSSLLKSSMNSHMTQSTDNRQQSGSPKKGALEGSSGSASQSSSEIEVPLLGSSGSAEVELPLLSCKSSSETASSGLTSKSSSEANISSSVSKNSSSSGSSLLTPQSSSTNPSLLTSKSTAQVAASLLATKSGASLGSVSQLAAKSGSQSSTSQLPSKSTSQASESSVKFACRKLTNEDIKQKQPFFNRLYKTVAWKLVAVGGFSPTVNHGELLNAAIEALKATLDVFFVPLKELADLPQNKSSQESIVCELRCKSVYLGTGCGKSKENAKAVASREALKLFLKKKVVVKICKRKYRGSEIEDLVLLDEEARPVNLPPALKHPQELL

SLC6A6 [2] = molecular target: T2, SLC6A6 (Rattus norvegicus, UniProt P31643); assay: DARTS (proteinase K protection, immunoblot); type: biochemical; details: INS-1E cell lysate, taurine 0-200 uM, pH 7.5, 1 h on ice; positive control
T2 construct: endogenous protein in INS-1E cell lysate
T2 sequence (P31643 1-621): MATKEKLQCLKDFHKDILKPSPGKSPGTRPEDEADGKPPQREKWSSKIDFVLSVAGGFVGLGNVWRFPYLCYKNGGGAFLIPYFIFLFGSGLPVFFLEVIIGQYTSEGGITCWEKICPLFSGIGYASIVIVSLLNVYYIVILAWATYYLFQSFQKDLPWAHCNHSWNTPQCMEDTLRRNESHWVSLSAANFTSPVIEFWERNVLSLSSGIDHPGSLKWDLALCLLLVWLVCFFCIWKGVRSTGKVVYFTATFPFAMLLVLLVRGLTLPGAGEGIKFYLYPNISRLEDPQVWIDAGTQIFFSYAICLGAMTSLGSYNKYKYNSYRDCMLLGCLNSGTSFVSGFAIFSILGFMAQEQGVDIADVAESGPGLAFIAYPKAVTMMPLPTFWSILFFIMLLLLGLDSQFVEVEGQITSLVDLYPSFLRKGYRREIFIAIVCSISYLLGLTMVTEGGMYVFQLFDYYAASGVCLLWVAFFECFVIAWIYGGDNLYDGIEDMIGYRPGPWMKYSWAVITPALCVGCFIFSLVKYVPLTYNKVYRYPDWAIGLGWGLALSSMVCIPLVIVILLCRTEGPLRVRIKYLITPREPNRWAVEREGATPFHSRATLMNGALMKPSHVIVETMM

CDKN2AIP [3] = molecular target: T3, CDKN2AIP (Rattus norvegicus, UniProt Q5U2X0); assay: DARTS (proteinase K protection, immunoblot); type: biochemical; details: INS-1E cell lysate, taurine 0-200 uM, pH 7.5, 1 h on ice
T3 construct: endogenous protein in INS-1E cell lysate
T3 sequence (Q5U2X0 2-570): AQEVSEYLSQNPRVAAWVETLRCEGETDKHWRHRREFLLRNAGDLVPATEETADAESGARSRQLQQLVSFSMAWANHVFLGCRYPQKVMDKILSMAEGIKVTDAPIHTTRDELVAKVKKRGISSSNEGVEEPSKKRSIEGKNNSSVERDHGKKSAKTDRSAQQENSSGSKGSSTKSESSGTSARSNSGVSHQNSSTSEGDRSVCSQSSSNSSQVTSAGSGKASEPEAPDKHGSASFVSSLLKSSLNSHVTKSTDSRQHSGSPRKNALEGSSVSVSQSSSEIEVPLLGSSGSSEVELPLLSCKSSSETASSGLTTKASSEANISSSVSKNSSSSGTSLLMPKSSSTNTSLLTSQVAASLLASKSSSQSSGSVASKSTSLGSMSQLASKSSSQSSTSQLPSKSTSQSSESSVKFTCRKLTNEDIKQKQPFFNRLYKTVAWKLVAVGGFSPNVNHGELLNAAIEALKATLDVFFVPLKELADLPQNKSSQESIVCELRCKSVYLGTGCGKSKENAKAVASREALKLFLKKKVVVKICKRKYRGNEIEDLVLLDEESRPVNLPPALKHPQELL

GFP-tagged CDKN2AIP [4] = molecular target: T4, GFP-tagged CDKN2AIP (Homo sapiens, UniProt Q9NXV6); assay: DARTS (proteinase K protection, immunoblot); type: biochemical; details: HEK293 cell lysate, GFP-tagged wild type
T4 construct: GFP-tagged human CDKN2AIP expressed in HEK293 cells, cell lysate
T4 sequence (Q9NXV6 2-580): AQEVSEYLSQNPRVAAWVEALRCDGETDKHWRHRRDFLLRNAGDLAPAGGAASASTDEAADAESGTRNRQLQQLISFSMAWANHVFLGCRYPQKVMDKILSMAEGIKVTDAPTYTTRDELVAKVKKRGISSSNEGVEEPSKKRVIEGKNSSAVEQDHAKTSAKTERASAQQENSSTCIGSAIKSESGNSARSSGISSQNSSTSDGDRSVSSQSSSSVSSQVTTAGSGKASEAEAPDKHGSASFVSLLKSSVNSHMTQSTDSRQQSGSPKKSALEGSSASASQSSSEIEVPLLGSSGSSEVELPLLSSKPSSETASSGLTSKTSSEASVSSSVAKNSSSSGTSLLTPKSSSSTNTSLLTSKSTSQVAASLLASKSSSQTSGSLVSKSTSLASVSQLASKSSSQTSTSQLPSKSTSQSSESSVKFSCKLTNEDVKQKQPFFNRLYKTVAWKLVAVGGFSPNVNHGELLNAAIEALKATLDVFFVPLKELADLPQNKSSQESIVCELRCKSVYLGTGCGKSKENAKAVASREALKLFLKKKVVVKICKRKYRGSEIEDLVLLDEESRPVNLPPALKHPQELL

GFP-tagged CDKN2AIP [5] = molecular target: T5, GFP-tagged CDKN2AIP (Homo sapiens, UniProt Q9NXV6, P484A/L485A/K486A); assay: DARTS (proteinase K protection, immunoblot); type: biochemical; details: HEK293 cell lysate, GFP-tagged triple mutant
T5 construct: GFP-tagged human CDKN2AIP expressed in HEK293 cells, cell lysate
T5 sequence (Q9NXV6 2-580 P484A/L485A/K486A): T4 sequence (Q9NXV6 2-580) with P483A, L484A, K485A

SLC6A6 [6] = molecular target: T6, SLC6A6 (Mus musculus, UniProt O35316); assay: DARTS (proteinase K protection, immunoblot); type: biochemical; details: MIN6 cell lysate, taurine 0-200 uM, pH 7.5, 1 h on ice; positive control
T6 construct: endogenous protein in MIN6 cell lysate
T6 sequence (O35316 1-621): T2 sequence (P31643 1-621) with Q151H, A188T, H212N, N281D, E286G, V435L, I521V, V555L, A602V

[7] = molecular target: T7, CDKN2AIP recombinant protein (Homo sapiens, UniProt Q9NXV6); assay: DARTS (proteinase K protection of recombinant protein); type: binding
T7 construct: recombinant human CDKN2AIP
T7 sequence (Q9NXV6 2-580): T4 sequence (Q9NXV6 2-580)

Q: What does the source list for `NCCS(=O)(=O)O` [taurine, 2‐aminoethanesulfonic acid]?
A: DARTS (proteinase K protection, immunoblot) (CDKN2AIP [1]): taurine dose‐dependently prevented protease K‐induced degradation of CDKN2AIP and SLC6A6; DARTS (proteinase K protection, immunoblot) (SLC6A6 [2]): taurine dose‐dependently prevented protease K‐induced degradation of CDKN2AIP and SLC6A6; DARTS (proteinase K protection, immunoblot) (CDKN2AIP [3]): taurine dose‐dependently prevented protease K‐induced degradation of CDKN2AIP and SLC6A6; DARTS (proteinase K protection, immunoblot) (GFP-tagged CDKN2AIP [4]): DARTS experiments demonstrated that taurine bound to wild‐type CDKN2AIP; DARTS (proteinase K protection, immunoblot) (GFP-tagged CDKN2AIP [5]): taurine bound to wild‐type CDKN2AIP but not the CDKN2AIP‐triple mutant; DARTS (proteinase K protection, immunoblot) (SLC6A6 [6]): taurine dose‐dependently prevented protease K‐induced degradation of CDKN2AIP and SLC6A6; DARTS (proteinase K protection of recombinant protein) [7]: Taurine also prevented proteinase K‐induced degradation of the CDKN2AIP recombinant protein
